Results as given in patent US5637085A, “Method of cancer tumor treatment by slow release delivery of 1,2,4-benzotriazine oxides to tumor site” (priority 1995, dated 1997).
Several values for one entry are separate records, joined by “and”; a condition that tells them apart may be missing. Equal entries are not always repeated.

Key:
[1] = system: U251 GBM xenograft; test: Experiment A: U251 xenograft response to systemic delivery of tirapazamine (mean tumor volume doubling time); format: in vivo, human U251 in male Balb/c athymic nude mice
Description: (§1) Tumor Cell line: The human GBM cell line (U251) used in the study was obtained from the DCT Tumor Repository, National Cancer Institute. Cells were cultured in Delbecco's MEM/Ham's F-12 nutrient mixture with 10% fetal bovine serum (GIBCO) and […] (penicillin and streptomycin) in 12×80 mm plastic culture dishes or T25 culture flasks. Cells were incubated (37° C.) in a mixture of 5% carbon dioxide and 95% air. Media were changed twice weekly and cells were passaged at confluence with 0.5% trypsin.
(§2) Nude mouse xenonaft: Six week old male Balb/c athymic nude mice received subcutaneous injections of 4×10^6 (experiment A) and 5×10^6 (experiment B) U251 cells in the left posterior extremity. Tumors were visible after 6 to 8 days. Tumor sizes ranged from 0.51-1.2 cm^3 at the start of the treatment. […] Mice were sacrificed after tumors reached at least twice their original tumor volume.
(§3) Systemic Administration of Tirapazamine: The drug was supplied by Sanoff Winthrop, Collegeville, Pa. Tirapazamine was dissolved in physiological saline at a concentration of […] and intraperitoneal (IP) injections were given in a volume of 0.02 ml/g body weight (0.08 mmole/kg). Animals in experiment A received daily injections, and animals in experiment B received injections twice daily over 3 consecutive days for a total of 6 injections.
(§4) In Vivo Irradiation: A Mark I Irradiator (Model 68, J. L. Shepherd and Assoc.) was used for in vivo irradiation. The dose to the xenograft was calibrated using TLD dosimetry and confirmed with radiochromic dye media (Gafchromic) mouthed in polystyrene mouse phantoms. The tumor bearing flank was selectively irradiated, with shielding of the mouse trunk and head. In experiment A, irradiation began on the first day of IP tirapazamine injection, and animals received 2 Gy×6 consecutive daily fractions. In experiment B, irradiation and systemic tirapazamine administration began one day following polymer disc implantation and animals received 2 Gy twice daily (separated by 5-6 hours) over 3 consecutive days for a total of 6 fractions. Radiation treatments were given 5-20 minutes following IP drag or saline injections.
Tumor Volumetrics: Tumor length (L), width (W), and height (H) were measured twice weekly and tumor volumes were calculated as pi/6×L×W×H. The logarithm of the ratio of this product (V) to the initial product (VO) for each animal was calculated and the mean logarithm of this ratio for each treatment group was plotted versus time. The time of regrowth to twice the original tumor volume (V/VO=2; log V/VO=0.3) for each animal and treatment group was calculated from the plot of log V/VO vs. time. Mean tumor volume doubling time (VDT) was used as the endpoint to determine efficacy of a given treatment arm on U251 xenograft tumors. […]

[2] = system: U251 GBM xenograft; test: Experiment B: U251 xenograft response to systemic and intratumoral polymer delivery of tirapazamine (mean tumor volume doubling time); format: in vivo, human U251 in male Balb/c athymic nude mice
Description: as §1, §2, §3
Tirapazamine Polymer Formulation: 2 mg tirapazamine and 8 mg PCPP:SA polymer were combined in methylene chloride ([…] wt/wt). The solvents were removed by desiccation under vacuum. The tirapazamine containing polymers were then pressed into discs measuring 3 mm in diameter and 1 mm in height. Each disc weighed 10 mg.
(§5) Implantation of Polymer Discs:. For surgical implantation of polymer discs, animals were anesthetized with methoxyflurane, a skin incision was made next to the xenograft, and an empty disc or tirapazamine disc was inserted in the center of the tumor via a single 3-4 mm incision. The incision was closed using wound clips. Contralateral flank polymer discs were placed subcutaneously using the same technique.
as §4
(§6) Tumor Volumetrics: Tumor length (L), width (W), and height (H) were measured twice weekly and tumor volumes were calculated as pi/6×L×W×H. The logarithm of the ratio of this product (V) to the initial product (VO) for each animal was calculated and the mean logarithm of this ratio for each treatment group was plotted versus time. The time of regrowth to twice the original tumor volume (V/VO=2; log V/VO=0.3) for each animal and treatment group was calculated from the plot of log V/VO vs. time. Mean tumor volume doubling time (VDT) was used as the endpoint to determine efficacy of a given treatment arm on U251 xenograft tumors. Each animal was weighed bi-weekly to assess possible toxicity to treatment.
Outcomes among experimental groups were compared using the two tailed Student's test.
Intralesional delivery of tirapazamine by polymer implants: After establishing the antitumor effect of systemic administration of tirapazamine on GBM xenografts, experiment B was done to evaluate intralesional polymer delivery of tirapazamine alone or combined with irradiation. […]

[3] = Toxicity, experiment B: mean low and final animal weights as a fraction of the pretreatment weight; format: in vivo, male Balb/c athymic nude mice
Source text: as §2, §3, §5, §4, §6
The weight losses were transient, with all groups exceeding their pretreatment weights prior to sacrifice.

[4] = system: mouse squamous cell VII tumors; settings: cited from earlier work
[5] = system: FSalIC Murine Fibrosarcoma; settings: SR-4233 just before single-dose cyclophosphamide, carmustine or melphalan; cited from earlier work
[6] = system: mouse SCCVII and other tumors; settings: multiple injections in conjunction with fractionated irradiation; cited from earlier work
[7] = contralateral flank drug implant and tumor empty implant + radiation, group 4
[8] = tumor drug implant + IP tirapazamine + radiation, group 7
[9] = tumor drug implant + IP tirapazamine, no radiation, group 2
[10] = tumor drug implant + radiation, group 5
[11] = tumor empty implant + IP tirapazamine + radiation, group 6
[12] = within one hour of injecting tirapazamine

Nc1n[n+]([O-])c2ccccc2[n+]1[O-] [tirapazamine, 3-amino-1,2,4-benzotriazine-1,4-dioxide]
effect on mean volume doubling time (VDT) ([1]; IP tirapazamine alone, no radiation): no effect
Mean xenograft tumor volume doubling time (VDT) ± SEM ([1]; IP tirapazamine daily × 6 (0.08 mmole/kg) plus radiation 2Gy daily × 6, group 4): 35 days and 35 ± 2.5 days
Mean xenograft tumor volume doubling time (VDT) ± SEM ([1]; IP tirapazamine daily × 6 (0.08 mmole/kg), no radiation, group 2): 12 days and 12 ± 0.6 days
lengthening of mean VDT ([1]; fractionated radiation (2 Gy×6) plus IP tirapazamine, 12 days for fractionated radiation alone): 25 days
Mean xenograft tumor doubling time (VDT) ± SEM ([2]; contralateral flank drug implant and tumor empty implant + radiation 2Gy bid × 3 days, group 4): 16.4 ± 1.57 days
growth delay ([2]; group 7 vs IP tirapazamine alone plus radiation, P=0.016): 11.8 days
growth delay ([2]; group 7 vs tumor drug implant alone plus radiation, P=0.004): 12.8 days
growth delay ([2]; tumor drug implant + IP tirapazamine + radiation (group 7) vs radiation alone controls, P<0.001): 16.5 days
Mean xenograft tumor doubling time (VDT) ± SEM ([2]; tumor drug implant + IP tirapazamine bid + radiation 2Gy bid × 3 days, group 7): 35.8 ± 2.0 days
Mean xenograft tumor doubling time (VDT) ± SEM ([2]; tumor drug implant + IP tirapazamine bid, no radiation, group 2): 10.5 ± .87 days
growth delay ([2]; tumor drug implant + IP tirapazamine, no radiation vs tumor empty polymer implant (group 1), P=0.15): 3.5 days
Mean xenograft tumor doubling time (VDT) ± SEM ([2]; tumor drug implant + radiation 2Gy bid × 3 days, no IP tirapazamine, group 5): 23.0 ± 2.49 days
growth delay ([2]; tumor drug implant plus radiation (group 5) vs tumor empty implant plus contralateral drug implant with radiation, P=0.055): 6.6 days
growth delay ([2]; tumor drug implant plus radiation (group 5) vs tumor empty polymer implant plus radiation, P=0.24): 3.7 days
Mean xenograft tumor doubling time (VDT) ± SEM ([2]; tumor empty implant + IP tirapazamine bid + radiation 2Gy bid × 3 days, group 6): 24.8 ± 3.0 days
growth delay ([2]; tumor empty implant + IP tirapazamine with radiation (group 6) vs tumor empty implant plus radiation, P=0.15): 5.5 days
systemic toxicity (weight loss) ([3]; combination of IP and polymer tirapazamine, transient, toxicity primarily associated with the IP treatments): produced systemic toxicity
Final body weight/Pretreatment weight (± SEM) [3, 7]: 1.08 ± .02
Low weight post treatment/Pretreatment weight (± SEM) [3, 7]: 0.96 ± .02
Final body weight/Pretreatment weight (± SEM) [3, 8]: 1.06 ± .03
Low weight post treatment/Pretreatment weight (± SEM) [3, 8]: 0.85 ± .03
Final body weight/Pretreatment weight (± SEM) [3, 9]: 1.05 ± .04
Low weight post treatment/Pretreatment weight (± SEM) [3, 9]: 0.95 ± .01
Final body weight/Pretreatment weight (± SEM) [3, 10]: 1.06 ± .01
Low weight post treatment/Pretreatment weight (± SEM) [3, 10]: 0.95 ± .01
Final body weight/Pretreatment weight (± SEM) [3, 11]: 1.09 ± .03
Low weight post treatment/Pretreatment weight (± SEM) [3, 11]: 0.89 ± .01
time of return of hypoxic fraction to pretreatment levels ([4]; after injecting tirapazamine): 3 to 5 h
hypoxic fraction [4, 12]: 0.57%
hypoxic fraction, % of pretreatment levels [4, 12]: about 7%
cytotoxic effects on tumor cells in combination with alkylating agents [5]: marked dose enhancement leading to synergistic cytotoxic effects on tumor cells
tumor cell kill with fractionated irradiation [6]: increases tumor cell kill while sparing normal tissue
